What all share (experiment): growth of human tumour cells (NCI), 48 h
The subject of experiment [1] is HCT-15.
In experiment [2] the test system is M14.
The test system of experiment [3] is EKVX.
Experiment [4] has as its system IGROV-1.
Experiment [5] relates to NCI-H226.
Experiment [6] relates to CCRF-CEM.
In experiment [7] the test system is MDA-N.
Experiment [8] deals with MDA-MB-435.
In experiment [9] the test system is COLO 205.
The subject of experiment [10] is NCI-H23.
Experiment [11] has as its system SNB-75.
Experiment [12] has as its system UACC-257.
Experiment [13] deals with TK-10.
Experiment [14] relates to NCI/ADR-RES.
Experiment [15] has as its system OVCAR-8.
Experiment [16] relates to SN12C.
For experiment [17], the system named is A549.
Experiment [18] deals with HCT-116.
Experiment [19] relates to SK-MEL-2.
In experiment [20] the test system is SK-MEL-5.

The structures appear in SMILES notation.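 Tested at 5 concentrations; 48 h exposure; 96-well plates; endpoints linearly interpolated, else capped at highest concentration. GI50 marks 50% less growth.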 The source made the active and inactive calls. Cut-off read from the data, not from the text of the source: active = GI50 up to about 1.1 µM and inactive = higher.

On to `O=C(CCCn1ccnc1[N+](=O)[O-])NCCn1cncc1[N+](=O)[O-]`, for which the GI50 in experiment [1] is over 100 µM; in [2], > 100 µM (inactive); in [3] it was > 100 µM (inactive); in [4] it was > 100 µM (inactive); in experiment [5], > 100 µM (inactive); in experiment [6], > 100 µM (inactive). The GI50 in experiment [7], in experiment [8], in [9], in experiment [10], in [11] and in experiment [12] was > 100 µM (inactive) in each case. The GI50 in experiment [13], in experiment [14], in experiment [15], in [16], in experiment [17] and in experiment [18] was > 100 µM (inactive) each time. The GI50 in [19] and in experiment [20] was > 100 µM (inactive) throughout.
Regarding `CCCCC/C=C1/CC(CO)(COC(=O)CC(C(C)C)C(C)C)OC1=O` (stereo not given), the GI50 in [1] is 18.7 µM; in [2] it was 14.1 µM (inactive); in [3], 14.2 µM (inactive); in experiment [4], 17.8 µM (inactive); in experiment [5] it was 12.1 µM (inactive); in experiment [6], 16 µM (inactive). Moreover, the GI50 in [7] was 3.67 µM (inactive); in [8] it was 6.27 µM (inactive); in [9] it was 3.24 µM (inactive); in experiment [10], 16 µM (inactive); in experiment [11] it was 10.3 µM (inactive); in experiment [12] it was 21.4 µM (inactive). The GI50 in experiment [13] was 11.8 µM (inactive); in experiment [14], 17.9 µM (inactive); in experiment [15] it was 17.2 µM (inactive); in experiment [16], 12.4 µM (inactive); in experiment [17], 11.1 µM (inactive); in [18], 14.8 µM (inactive). In addition, the GI50 in experiment [19] is 13.3 µM (inactive); in experiment [20], 9.95 µM (inactive).
On to `CC(C)c1ccccc1[S+]([O-])c1ccccc1C(C)(C)O` (stereo not given), for which the GI50 in experiment [1] is 82 µM; in experiment [2], > 100 µM (inactive); in experiment [3], > 100 µM (inactive); in [4], > 100 µM (inactive); in [5] it was 21.3 µM (inactive); in experiment [6], > 100 µM (inactive). Also, the GI50 is 57.8 µM (inactive) in experiment [7]; 39.6 µM (inactive) in [8]; > 100 µM (inactive) in experiment [9]; > 100 µM (inactive) in experiment [10]; 32.3 µM (inactive) in experiment [11]; > 100 µM (inactive) in experiment [12]. The GI50 in experiment [13] is > 100 µM (inactive); in experiment [14], 64.6 µM (inactive); in experiment [15], > 100 µM (inactive); in [16] it was > 100 µM (inactive); in [17], 44.2 µM (inactive); in experiment [18], > 100 µM (inactive). The GI50 in experiment [19] was 67.6 µM (inactive); in experiment [20] it was 27.2 µM (inactive).
In the case of `Cc1ccc2ccccc2c1CSc1nc(N)nc2c1ncn2CC(C)C`, the GI50 in experiment [1] was 10.9 µM; in experiment [2], 17.3 µM (inactive); in [3], 13.6 µM (inactive); in experiment [4] it was 51.2 µM (inactive); in [5], 7.82 µM (inactive); in [6] it was 6.15 µM (inactive). The GI50 in [7] is 15.7 µM (inactive); in experiment [8], 10.3 µM (inactive); in experiment [9], 6.4 µM (inactive); in experiment [10], 24.4 µM (inactive); in [11], 43.3 µM (inactive); in [12] it was 11.7 µM (inactive). For the same compound, the GI50 is 29.6 µM (inactive) in [13]; 21.8 µM (inactive) in experiment [14]; 40.4 µM (inactive) in experiment [15]; 40 µM (inactive) in [16]; 10.9 µM (inactive) in [17]; 9.82 µM (inactive) in experiment [18]. Also, the GI50 in experiment [19] was 17 µM (inactive); in experiment [20], 7.05 µM (inactive).

The values above are taken from ChEMBL document CHEMBL1201862, “PubChem BioAssay data set” (2004).
